# Results from paper PMC10999112 (Angewandte Chemie (International ed. in English), 2023).
# Biological target: recombinant WT-NSUN2 (Homo sapiens, UniProt Q08J23)
# Test: Gel-ABPP in lysate of WT-NSUN2-expressing HEK293T cells
# Assay type: binding
# Details: recombinant WT-NSUN2 in HEK293T cell lysates
# Chain of recombinant WT-NSUN2 (Q08J23 whole entry): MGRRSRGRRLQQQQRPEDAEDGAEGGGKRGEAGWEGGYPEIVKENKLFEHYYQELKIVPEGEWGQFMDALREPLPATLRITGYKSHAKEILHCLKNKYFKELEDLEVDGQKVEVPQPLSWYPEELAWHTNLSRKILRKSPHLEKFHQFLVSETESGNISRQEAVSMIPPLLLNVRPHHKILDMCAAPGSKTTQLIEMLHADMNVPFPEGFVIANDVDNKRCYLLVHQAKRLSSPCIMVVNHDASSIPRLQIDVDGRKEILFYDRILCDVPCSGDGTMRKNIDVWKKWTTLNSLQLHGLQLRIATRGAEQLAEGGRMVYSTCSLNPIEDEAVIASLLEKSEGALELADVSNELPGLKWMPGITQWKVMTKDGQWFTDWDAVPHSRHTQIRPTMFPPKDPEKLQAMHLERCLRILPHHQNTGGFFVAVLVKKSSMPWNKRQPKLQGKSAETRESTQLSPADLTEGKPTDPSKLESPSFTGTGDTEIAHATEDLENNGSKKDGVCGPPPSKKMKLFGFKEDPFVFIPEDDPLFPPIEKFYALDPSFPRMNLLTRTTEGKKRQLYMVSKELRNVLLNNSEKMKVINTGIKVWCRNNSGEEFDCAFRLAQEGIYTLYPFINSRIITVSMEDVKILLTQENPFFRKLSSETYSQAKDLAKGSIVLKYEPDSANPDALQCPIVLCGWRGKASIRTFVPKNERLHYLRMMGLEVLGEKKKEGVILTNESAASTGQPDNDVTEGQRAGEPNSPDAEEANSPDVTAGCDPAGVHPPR
smiles,measurement,value
"Nc1ncnc2c1ncn2[C@@H]1O[C@H](CSCC[C@H](N)C(=O)O)[C@@H](O)[C@H]1O [SAH, S-adenosylhomocysteine]",blockade of MY-11B reactivity with NSUN2,blocked in a concentration-dependent manner
